Measured values taken from patent US10266482B2, “Long-term memory inducing agent” (NATIONAL UNIVERSITY CORPORATION TOKYO MEDICAL AND DENTAL …, priority 2017, dated 2019).

Key:
young crickets [1] = assay: Olfactory associative learning test in young crickets (single-time training, memory a day after); assay type: in vivo, Gryllus bimaculatus
Description: Male crickets about one week old (young) or three week old (aged) following molting into adult forms were used. Each of the crickets was placed into a 100 ml beaker three days before the experiment, and deprived of water for 2-3 days to enhance the desire of taking water. As the feed, about 10 pieces of insect feed were placed into the beaker.
A 1-ml syringe was used for smell and reward associative conditioning upon learning/training. The syringe contained water as the reward while a piece of paper (3 mm×3 mm) perfumed with peppermint essence was pierced into the needle to about 1 cm from the tip thereof. In this learning/training, the filter paper on the needle was brought near the antennae of the cricket to allow it to smell for 3 seconds and then a drop of water was put out from the tip of the needle and applied to the mouth of the cricket. When the associative conditioning was conducted for four times, the conditionings were conducted at intervals of 5 minutes.
Smell preference was examined by placing each cricket into a test arena. The arena consisted of a “standby chamber” and a “test chamber”. The floor of the “test chamber” had two holes each with a diameter of 4 cm which were communicated with two smell sources. The smell source was a plastic pot containing filter paper perfumed with essence of a smell (peppermint or vanilla) and covered with a gauze lid. In the preference test, each cricket was placed into the test chamber and allowed to walk freely for 4 minutes to search for the two smell sources. Two minutes after the start of the test, a rotary board having the smell sources was rotated to reverse the positions of the vanilla and the peppermint smells. During the test, the time the cricket spent placing its mouth to the gauze of the smell source was measured as a visiting time to the smell source, and the ratio of the visiting times of the two types of smells (PI value: preference index) was calculated according to the following formula to assess the relative preference to the mint smell. PI value=Tp/(Tp+Tv)×100 • Tp: Searching time for smell associated with the reward (peppermint) • Tv: Searching time for smell not associated with the reward (vanilla)
If the preferences for the two smells are equivalent, PI will be 50. Since crickets inherently prefer vanilla smell over peppermint smell, an average PI value prior to the learning/training is usually 25-35, The preference test was conducted before and after the learning/training to examine whether preference for the smell changes due to the learning/training.
As drugs, melatonin, N(1)-acetyl-N(2)-formyl-5-methoxykynuramine (AFMK), N(1)-acetyl-5-methoxykynuramine (AMK), 6-Hydroxymelatonin (6-HM), L-kynurenine, kynuramine, 8-Bromoguanoine 3′,5′-cyclic monophosphate sodium salt (8 br-cGMP) and cycloheximide (CHX) were used. Melatonin, 6-HM, kynurenine, kynuramine and 8br-cGMP were purchased from SIGMA Aldrich, AFMK was purchased from Cayman Chemical, AMK was purchased from Toronto Research Chemicals and CHX was purchased from Wako Pure Chemical Industries. The drugs other than 8br-cGMP and CHX were first dissolved in ethanol and then diluted with physiological saline for crickets to the respective concentrations. In the administration experiment, 3 μl was administered using a 10-μl syringe to the brain via an aperture opened through a simple eye of the head.
PI values were tested before the training and a day after the training in the same group by a Wilcoxon's-test.

aged crickets = assay: Olfactory associative learning test in aged crickets (age-related memory disorder, training four times); assay type: in vivo, Gryllus bimaculatus; settings: 5 μM, 3 μl
Description: Male crickets about one week old (young) or three week old (aged) following molting into adult forms were used. Each of the crickets was placed into a 100 ml beaker three days before the experiment, and deprived of water for 2-3 days to enhance the desire of taking water. As the feed, about 10 pieces of insect feed were placed into the beaker. A 1-ml syringe was used for smell and reward associative conditioning upon learning/training. The syringe contained water as the reward while a piece of paper (3 mm×3 mm) perfumed with peppermint essence was pierced into the needle to about 1 cm from the tip thereof. In this learning/training, the filter paper on the needle was brought near the antennae of the cricket to allow it to smell for 3 seconds and then a drop of water was put out from the tip of the needle and applied to the mouth of the cricket. When the associative conditioning was conducted for four times, the conditionings were conducted at intervals of 5 minutes. Smell preference was examined by placing each cricket into a test arena. The arena consisted of a “standby chamber” and a “test chamber”. […] The smell source was a plastic pot containing filter paper perfumed with essence of a smell (peppermint or vanilla) and covered with a gauze lid. In the preference test, each cricket was placed into the test chamber and allowed to walk freely for 4 minutes to search for the two smell sources. Two minutes after the start of the test, a rotary board having the smell sources was rotated to reverse the positions of the vanilla and the peppermint smells. During the test, the time the cricket spent placing its mouth to the gauze of the smell source was measured as a visiting time to the smell source, and the ratio of the visiting times of the two types of smells (PI value: preference index) was calculated according to the following formula to assess the relative preference to the mint smell. PI value=Tp/(Tp+Tv)×100 • Tp: Searching time for smell associated with the reward (peppermint) • Tv: Searching time for smell not associated with the reward (vanilla) If the preferences for the two smells are equivalent, PI will be 50. Since crickets inherently prefer vanilla smell over peppermint smell, an average PI value prior to the learning/training is usually 25-35, The preference test was conducted before and after the learning/training to examine whether preference for the smell changes due to the learning/training. […] Melatonin, 6-HM, kynurenine, kynuramine and 8br-cGMP were purchased from SIGMA Aldrich, AFMK was purchased from Cayman Chemical, AMK was purchased from Toronto Research Chemicals and CHX was purchased from Wako Pure Chemical Industries. The drugs other than 8br-cGMP and CHX were first dissolved in ethanol and then diluted with physiological saline for crickets to the respective concentrations. In the administration experiment, 3 μl was administered using a 10-μl syringe to the brain via an aperture opened through a simple eye of the head. PI values were tested before the training and a day after the training in the same group by a Wilcoxon's-test.

young crickets [2] = assay: Olfactory associative learning test in young crickets (single-time training, memory a day after); assay type: in vivo, Gryllus bimaculatus; settings: drinking 10 μl of aqueous solution (5 μM) 5 minutes after single-time training
young mice = assay: Object recognition test for young mice (melatonin and melatonin metabolites); assay type: in vivo, ICR mice; settings: i.p. 60 minutes after one one-minute acquisition trial, test trial 24 hours later
Description: Two-month-old male ICR mice (young mice) were used. The rearing room was kept at 22° C. at cycles of 12 hours of light period/12 hours of dark period, and feed and drinking water were given freely. All of the experiments were conducted during the latter 6 hours of the light period.
Melatonin (MEL), N(1)-acetyl-N(2)-formyl-5-methoxykynuramine (AFMK), and N(1)-acetyl-5-methoxykynuramine (AMK) were used as drugs. Melatonin was purchased from SIGMA Aldrich, AFMK was purchased from Cayman Chemical, and AMK was purchased from Toronto Research Chemicals. AFMK and AMK were diluted with physiological saline and intraperitoneally administered at a dosage of 0.01 mg/kg bw, 0.1 mg/kg bw or 1.0 mg/kg bw. MEL was diluted with physiological saline containing 1 vol % ethanol, and intraperitoneally administered at a dosage of 1.0 mg/kg bw or 5.0 mg/kg bw. As controls, physiological saline or physiological saline containing 1 vol % ethanol was intraperitoneally administered.
Test was conducted in the same manner as “5.3 Object recognition test” in Example 5.
Processing was conducted in the same manner as “5.4 Statistical processing” in Example 5.

`COc1ccc2[nH]cc(CCNC(C)=O)c2c1` [melatonin, reference compound] was tested, and the “long-term memory formation a day after the training” value (young crickets [1]; 0.2 μM, 3 μl to the brain, 20 minutes after single-time training) was “not”, the “long-term memory formation a day after the training” value (young crickets [1]; 1 μM, 3 μl to the brain, 20 minutes after single-time training) was “not” and the “PI value for mint a day after the training versus PI value before the training” value (young crickets [1]; 5 μM to the brain 20 minutes before single-time training) was “significantly higher”. The “long-term memory formation a day after the training” value (young crickets [1]; 5 μM, 3 μl to the brain, 20 minutes after single-time training) was “long-term memories were formed”, the “long-term memory formation a day after the training” value (young crickets [1]; 5 μM, 3 μl, administered between 20 minutes before and 20 minutes after single-time training) was “long-term memory was formed” and the “long-term memory formation a day after the training” value (young crickets [1]; 25 μM, 3 μl to the brain, 20 minutes after single-time training) was “formed”. The “administration concentration sufficient to form long-term memory” value (young crickets [1]; 3 μl to the brain 20 minutes after single-time training) was 5 µM, the “amount in 1 g of the food per kg of body weight” value (young crickets [1]; based on the result from ingesting 5 μM for 10 μl) was at least 11.6 µg and the “PI value for mint a day after the training versus PI value before the training” value (young crickets [1]; melatonin 5 μM simultaneously with cycloheximide (10 mM), to the brain 20 minutes before single-time training) was “no significant difference”. The “improvement in an age-related memory disorder” value (aged crickets; 20 minutes after training for four times) was “improvement in an age-related memory disorder was observed”, the “long-term memory formation a day after the training (improvement of age-related memory disorder)” value (aged crickets; 20 minutes before training for four times) was “a long-term memory was formed” and the “long-term memory formation a day after the training by oral administration” value (young crickets [2]) was “long-term memory was formed”. The “concentration at which the effect of inducing long-term memories was found” value (young mice) was 5.0 mg/kg bw.
